Earlier results on 1 compound are cited in patent publication US7713351B2, “Method for crystallization of proteins using polysaccharides” (Macrocrystal Oy, priority 2004, dated 2010).

For this series the following is noted: room temperature; CRC Handbook of Chemistry and Physics.

Turning to `OCC(O)CO` [glycerol], the Viscosity is reported as 934 mPa s.
